According to the supplement of paper PMC10307832:

Columns and labels:
Experiment in all cases: relative viability (nuclei count vs DMSO), 5 days (fraction); higher = more cells survive
GW-2580 + Pictilisib = compound: COC1=CC=C(C=C1)COC2=C(C=C(C=C2)CC3=CN=C(N=C3N)N)OC [GW-2580] + CS(=O)(=O)N1CCN(Cc2cc3nc(-c4cccc5[nH]ncc45)nc(N4CCOCC4)c3s2)CC1 [Pictilisib] (partner 1 µM)
Procedure, shortened: (§1)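 Lung cancer cell lines in 1536-well plates were dosed by pin tool the day after seeding, either with one drug alone or with a fixed anchor-drug dose plus five library-drug doses (not always all listed) in √10 steps. After 5 days, cells were fixed and their nuclei stained in one step (final 0.05% Triton X-100, 1% formaldehyde, 1 ug/ml Hoechst), then counted on 4× images. Relative viability is the nuclei count in treated wells divided by that in vehicle wells. Values are medians of duplicate plates.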

GW-2580 + Olaparib = compound: COC1=CC=C(C=C1)COC2=C(C=C(C=C2)CC3=CN=C(N=C3N)N)OC [GW-2580] + O=C(c1cc(Cc2n[nH]c(=O)c3ccccc23)ccc1F)N1CCN(C(=O)C2CC2)CC1 [Olaparib] (partner 8 µM)
Procedure, shortened: as §1

Fedratinib + AZD7762 = compound: Cc1cnc(Nc2ccc(OCCN3CCCC3)cc2)nc1Nc1cccc(S(=O)(=O)NC(C)(C)C)c1 [Fedratinib] + NC(=O)Nc1cc(-c2cccc(F)c2)sc1C(=O)N[C@H]1CCCNC1 [AZD7762] (partner 0.2 µM)
Procedure, shortened: as §1

GW-2580 + OSI-027 = compound: COC1=CC=C(C=C1)COC2=C(C=C(C=C2)CC3=CN=C(N=C3N)N)OC [GW-2580] + COc1cccc2cc(-c3nc([C@H]4CC[C@H](C(=O)O)CC4)n4ncnc(N)c34)[nH]c12 [OSI-027] (partner 0.5 µM)
Procedure, shortened: as §1

GW-2580 + Bortezomib = compound: COC1=CC=C(C=C1)COC2=C(C=C(C=C2)CC3=CN=C(N=C3N)N)OC [GW-2580] + CC(C)C[C@H](NC(=O)[C@H](Cc1ccccc1)NC(=O)c1cnccn1)B(O)O [Bortezomib] (partner 0.002 µM)
Procedure, shortened: as §1

Cell Line	relative viability (GW-2580 + Pictilisib; first compound 0.08 µM)	relative viability (GW-2580 + Pictilisib; first compound 0.8 µM)	relative viability (GW-2580 + Pictilisib; first compound 2.53 µM)	relative viability (GW-2580 + Pictilisib; first compound 8 µM)	relative viability (GW-2580 + Olaparib; first compound 0.08 µM)	relative viability (GW-2580 + Olaparib; first compound 0.8 µM)	relative viability (GW-2580 + Olaparib; first compound 2.53 µM)	relative viability (GW-2580 + Olaparib; first compound 8 µM)	relative viability (Fedratinib + AZD7762; first compound 0.1 µM)	relative viability (Fedratinib + AZD7762; first compound 0.3162 µM)	relative viability (Fedratinib + AZD7762; first compound 1 µM)	relative viability (GW-2580 + OSI-027; first compound 0.08 µM)	relative viability (GW-2580 + OSI-027; first compound 0.8 µM)	relative viability (GW-2580 + OSI-027; first compound 2.53 µM)	relative viability (GW-2580 + OSI-027; first compound 8 µM)	relative viability (GW-2580 + Bortezomib; first compound 0.08 µM)	relative viability (GW-2580 + Bortezomib; first compound 0.8 µM)	relative viability (GW-2580 + Bortezomib; first compound 2.53 µM)	relative viability (GW-2580 + Bortezomib; first compound 8 µM)
LCLC-103H	0.648	0.638	0.649	0.599	0.799	0.895	0.733	0.736	0.857	0.72	0.647	0.482	0.434	0.482	0.458	1.28	1.11	1.03	0.96
LOU-NH91	0.527	0.549	0.502	0.535	0.916	0.946	0.897	0.98	0.594	0.857	0.658	0.706	0.808	0.678	0.721	0.522	0.534	0.468	0.46
LU99A	0.274	0.322	0.251	0.294	0.259	0.264	0.261	0.269	0.322	0.325	0.272	0.294	0.263	0.306	0.34	1.1	1.15	0.986	1.17
LXF-289	0.82	0.849	0.653	0.672	1.24	1.14	1.06	1.19	1.08	1.07	0.966	0.999	0.859	0.857	0.731	1	1.06	0.93	0.916
NCI-H23	0.632	0.46	0.367	0.502	0.329	0.329	0.321	0.273	0.356	0.27	0.183	0.561	0.644	0.599	0.347	0.979	0.988	1.12	1.04
NCI-H322M	0.493	0.534	0.501	0.531	0.76	0.956	0.753	0.626	0.596	0.591	0.414	0.528	0.562	0.634	0.538	1.29	1.4	1.31	1.43
NCI-H441	0.505	0.587	0.379	0.436	0.644	0.582	0.555	0.585	1.34	1.09	1.05	0.653	0.634	0.586	0.77	0.608	0.254	0.288	1.13
NCI-H460	0.369	0.452	0.248	0.4	0.379	0.508	0.516	0.353	0.738	0.563	0.544	0.996	0.864	0.679	0.656	1.29	1.27	1.03	1.19
